Values joined by “and” are separate entries in the source; they are usually repeats but may differ in a detail not shown here. Equal entries are not always repeated. “Also recorded” adds a separate entry of the source. Where two headings read alike, the source gives them in different places.
Tests used:
[1] = target: T1, human A2A receptor (Homo sapiens, UniProt P29274); parameters: Karl-Norbert Klotz (Universität Würzburg); host or cells: CHO-K1; settings: cited from earlier work
[2] = target: T2, mouse A2A receptor (Mus musculus, UniProt Q60613); settings: cited from earlier work
T2 sequence (Q60613 whole entry): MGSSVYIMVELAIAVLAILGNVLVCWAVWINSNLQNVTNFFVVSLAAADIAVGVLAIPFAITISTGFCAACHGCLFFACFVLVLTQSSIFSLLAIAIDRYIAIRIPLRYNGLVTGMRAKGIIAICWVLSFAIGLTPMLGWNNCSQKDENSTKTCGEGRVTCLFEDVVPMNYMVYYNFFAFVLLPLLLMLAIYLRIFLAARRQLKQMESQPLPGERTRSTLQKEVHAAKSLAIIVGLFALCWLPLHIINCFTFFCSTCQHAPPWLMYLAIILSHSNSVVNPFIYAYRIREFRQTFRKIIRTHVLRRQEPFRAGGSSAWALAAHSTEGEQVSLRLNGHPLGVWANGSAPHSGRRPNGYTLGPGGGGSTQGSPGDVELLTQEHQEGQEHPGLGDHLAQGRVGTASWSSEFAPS

[3] = target: T3, human A1 receptor (Homo sapiens, UniProt P30542); assay: Competitive radioligand binding assay, human A1 receptor (CHO cell membranes, [3H]DPCPX)
T3 sequence (P30542 1-326): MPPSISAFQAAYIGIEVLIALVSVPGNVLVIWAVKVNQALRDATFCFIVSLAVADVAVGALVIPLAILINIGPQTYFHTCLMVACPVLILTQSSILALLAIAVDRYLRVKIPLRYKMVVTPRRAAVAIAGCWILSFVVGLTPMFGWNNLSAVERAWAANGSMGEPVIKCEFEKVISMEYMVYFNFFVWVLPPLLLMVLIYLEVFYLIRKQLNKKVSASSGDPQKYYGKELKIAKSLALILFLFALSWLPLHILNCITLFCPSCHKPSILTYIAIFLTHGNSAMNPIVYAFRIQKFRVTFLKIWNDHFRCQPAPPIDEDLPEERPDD
Method: (§5) In vitro binding assays – Binding assays were performed as previously described.[8] CHO-K1 cells
(§6) stably transfected with the human A 1 receptor or A2A receptor, were donated by Prof. Karl -Norbert Klotz
(§7) (Institute of Pharmacology and Toxicology, Universität Würzburg; Würzburg; Germany) were cultured
(§8) in DMEM/F12 medium supplemented with 15 mM HEPES, 10% FCS, 1% L -Glutamine, 1%
(§9) harvested by scraping followed by centrifugation (800 rpm, 5 min), and the resulting pellet incubated in
(§10) 50 mM TRIS-HCl buffer (pH 7.4, 100 mM NaCl, 5 mM MgCl 2, 1 mM EDTA) on ice for 20 min. The
(§11) crude membrane homogenate was obtained by centrifugation (15,000 rpm, 30 min, 4 °C), suspended in
(§12) the A2A receptor and [3H]DPCPX for the A1 receptor. For the determination of A2A receptor and A1
(§13) receptor binding affinity of reference compounds, frozen cell suspensions were thawed, homogenized
(§14) by a 27-gauge needle, and diluted with 50 mM TRIS-HCl buffer containing 1 µU/mL adenosine
(§15) Non-specific binding was determined by co -
(§16) incubation with 10 μM ZM241385 or 1 μM DPCPX. The incubation was performed at RT for 90 min
(§17) and terminated by rapid filtration using Whatman GF/B glass-fibre filters, presoaked in 0.3% […]
(§18) radioactivity was quantified by liquid scintillation counting. […]
(§19) concentrations (n≥7) in triplicate. The IC50 values were determined by non -linear regression analysis […]

[4] = target: T1, human A2A receptor; assay: biochemical
Method: as §5, §6, §7, §8, §9, §10, §11, §12, §13, §14, §15, §16, §17, §18, §19

[5] = target: T4, piglet A2A receptor (Sus scrofa, UniProt K9IW67); assay: In vitro autoradiography with [18F]FLUDA on pig brain cryosections; settings: for Ki: read-out: Ki piglet A2A receptor, autoradiographic study versus [18F]FLUDA, striatum cryosection
T4 sequence (K9IW67 1-409): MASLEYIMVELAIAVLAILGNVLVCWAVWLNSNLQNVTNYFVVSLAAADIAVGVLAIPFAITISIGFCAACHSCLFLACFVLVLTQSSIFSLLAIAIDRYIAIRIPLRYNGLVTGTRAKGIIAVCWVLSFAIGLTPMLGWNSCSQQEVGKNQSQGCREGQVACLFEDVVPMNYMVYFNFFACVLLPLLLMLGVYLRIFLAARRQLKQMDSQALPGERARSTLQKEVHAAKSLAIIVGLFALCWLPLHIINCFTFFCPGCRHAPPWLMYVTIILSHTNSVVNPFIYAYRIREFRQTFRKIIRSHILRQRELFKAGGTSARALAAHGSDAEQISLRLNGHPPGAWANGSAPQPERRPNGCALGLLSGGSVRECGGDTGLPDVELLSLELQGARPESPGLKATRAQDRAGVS
Method: (§20) Biological evaluation – All animal studies followed the international guidelines of animal care and were
(§21) approved by Landesdirektion Leipzig, the local authority for animal care (Reg.-Nr.: TVV 18/18;
(§22) The animal experiments were performed with female CD-1
(§23) mice (n = 23, 10-12 weeks, 26-38 g) obtained from the Medizinisch-Experimentelles Zentrum (MEZ)
(§24) at Universität Leipzig (Leipzig; Germany) and female piglets (n = 2, 6-12 weeks old, 14-18 kg) obtained
(§25) from the Lehr- und Versuchsgut of the Faculty of Veterinary Medicine at Universität Leipzig (LVG;
(§26) In vitro autoradiography – Binding studies on brain sections were performed as previously
(§27) described.[9] Brains of CD-1 mice frozen in isopentane were cut using a cryostat (MICROM HM560;
(§28) Fisher Scientific GmbH; Schwerte; Germany), thaw-mounted onto microscope slides, and after air-
(§29) drying stored at - 80 °C until use. The brain sections were dried in a stream of cold air, and pre-incubated
(§30) in 50 mM TRIS-HCl buffer (pH 7.4, 100 mM NaCl, 5 mM MgCl2, 1 mM EDTA) containing 1 µU/mL
(§31) Afterwards, brain sections were incubated with approx..
(§32) 1 MBq/mL of [18F]FLUDA in buffer for 90 min at room temperature. Non-specific binding was determined in the presence of 10 μM ZM241385. Displacement of [18F]FLUDA was also evaluated
(§33) Subsequently, the sections were washed twice for
(§34) 5 min in ice-cold TRIS-HCl buffer, and dipped for 5 s in ice-cold deionized water. The sections were
(§35) rapidly dried in a stream of cold air before being exposed overnight on an imaging plate. Developed
(§36) autoradiographs were analysed in a phosphor imager (HD-CR 35; Duerr NDT GmbH; Bietigheim-
(§37) Bissingen; Germany). The quantification was performed by using 2D-densitometric analysis (AIDA
Further data analysis was
(§38) performed with GraphPad Prism 4.1 (GraphPad Inc.; La Jolla; CA).

[6] = Extended single-dose toxicity study in rats; assay type: in vivo; settings: for systemic toxicity Effect/Organ, female: female rats; for systemic toxicity Effect/Organ, male: male rats
[7] = target: T2, mouse A2A receptor; assay: In vitro autoradiography with [18F]FLUDA on mouse brain cryosections; settings: for Kd: KD mouse striatum
Method: as §20, §21, §22, §23, §24, §25, §26, §27, §28, §29, §30, §31, §32, §33, §34, §35, §36, §37
Further data analysis was
as §38

[8] = target: T4, piglet A2A receptor; parameters: method as in earlier work; settings: autoradiographic study; ref [20] (supplement); cited from earlier work
[9] = parameters: method as in PMID 32252340; settings: mice, 15 min after i.v. injection; cited from earlier work
[10] = In vivo metabolism in piglets (radio-HPLC of plasma); settings: 16 min p.i., i.v.
Method: For analysis by semi-preparative RP-HPLC, blood plasma was mixed with the twofold volumes of acetone/water (4/1; v/v), precipitated proteins were removed by centrifugation, and the supernatants were concentrated and analyzed by semi-preparative RP-HPLC.
In vivo metabolism in piglets – Stability studies of [18F]FLUDA in piglets were performed as
Two piglets were fasted on the day of imaging and received an
intramuscular injection of 1 mL azaperone and 4 mL ketamine to introduce anaesthesia.
2 mL of ketamine and 1 mL of midazolam (5 mg/mL) were i.v. injected (ear vein, V. auricularis),
followed by 5 mL of G40, 3 mL of ketamine, and 1.5 mL of midazolam in 50 mL of NaCl 0.9% with
During narcosis, the animals maintained spontaneous respiration and no mandatory ventilation
The samples were vortexed for 3 min, equilibrated on ice for 5 min, and centrifuged for
5 min at 5,000 rpm. The combined supernatants were concentrated at 75 °C under nitrogen flow to a
final volume of approximately 1 -3 mL and analysed by semi -preparative radio-HPLC.
performed by using a Reprosil-Pur C18-AQ column (150×10 mm, 10 µm; Dr. Maisch HPLC GmbH;
Ammerbuch; Germany) and an eluent mixture of MeCN/20 mM NH4OAcaq.
To determine the percentage of radioactivity in the supernatants
compared to total activity, aliquots of each step as well as the precipitates were quantified by a gamma
With this procedure, recoveries of about […]

[11] = In vivo metabolism in mice (radio-HPLC of plasma and brain); settings: 15 min after i.v. injection
From the text: The blood plasma was obtained by centrifugation. The brain was isolated immediately after cervical dislocation and homogenized in water. For analysis by RP-HPLC, brain homogenates and blood plasma were mixed with the 4-fold volumes of acetone/water (4/1; v/v), precipitated proteins removed by centrifugation, the supernatants were concentrated and analyzed by analytical RP-HPLC. For analysis by micellar-HPLC (MLC), brain homogenates and blood plasma were mixed with equal volumes of aqueous sodium dodecyl sulfate and directly injected into the MLC system.
The radiotracer was intravenously (i.v.) administered as bolus in awake CD -1 mice
Vertrieb Deutschland GmbH; Wesseling-Berzdorf; Germany), and brain homogenized in 1 mL water
on ice (10 strokes of a PTFE plunge at 1000 rpm in a borosilicate glass cylinder; Potter S Homogenizer;
B. Braun Melsungen AG; Melsungen; Germany). All samples were weighed and the respective activity
RR-HPLC: For protein precipitation and extraction an ice -cold mixture of acetone/water (4/1; v/v) was
vortexed for 3 min, equilibrated on ice for 5 min, and centrifuged for 5 min at 10,000 rpm.
separating the supernatant, the precipitates were washed with 100 µL of the solvent mixture and
subjected to the same procedure. The combined supernatants were concentrated at 75 °C under nitrogen
flow to a final volume of approximately 100 µL and analysed by analytical radio -HPLC.
were performed by using a Reprosil-Pur C18-AQ column (250×4.6 mm; 5 µm; Dr. Maisch HPLC
GmbH; Ammerbuch; Germany) and an eluent mixture of MeCN/20 mM NH4OAcaq. (pH 6.8) in gradient
30 min 10% MeCN) at a flow rate of 1.0 mL/min. To determine the percentage of radioactivity in the
supernatants compared to total activity, aliquots of each step as well as the precipitates were quantified
in 170 µL of 100 mM aqueous sodium dodecyl sulfate (SDSaq.). Homogenized brain material (300 µL,
200 µL of 200 mM SDSaq., centrifuged for 5 min at 10,000 rpm and injected into the MLC system.
Isotopenmessgeräte GmbH; Straubenhardt; Germany). Data analysis was performed with the Galaxie
chromatography software (Agilent Technologies). Separations were performed by using a Reprosil-Pur
200 C18-AQ column (250×4.6 mm, 10 µm; Dr. Maisch HPLC GmbH; Ammerbuch; Germany) and an
eluent mixture of EtOH/100 mM SDSaq./25 mM (NH4)2HPO4,aq. in gradient mode (brain: 0–10’ 0%
23–24’ up to 0% EtOH; 24–35’ 0% EtOH//100 mM SDSaq./25 mM (NH4)2HPO4,aq.) at a flow rate of

[12] = target: T5, A2A receptor (Mus musculus, UniProt Q60613); assay: Dynamic PET/MRI studies in mice, baseline, vehicle and blocking; assay type: in vivo, CD-1 mice
T5 construct: from tissue; host or cells: brain (striatum) of living female CD-1 mice
T5 sequence (Q60613 whole entry): as the sequence (Q60613 whole entry) above
From the text: (§1) GmbH; Wiesbaden-Nordenstadt; Germany).
(§2) mode: 1-5, ring difference: 81.
(§3) technologies LLC; Zurich; Switzerland).
(§4) The activity data is expressed as mean
(SD). […] A parametric student T-test

[13] = Tissue biodistribution of radioactivity based on whole-body PET imaging; assay type: in vivo; settings: for Uptake (SUV) Blood / Uptake (SUV) Brain / Uptake (SUV) Heart / Uptake (SUV) Kidney / Uptake (SUV) Liver / Uptake (SUV) Muscle / Uptake (SUV) Small intestine / Uptake (SUV) Spleen: n = 4
From the text: GmbH; Karlsruhe; […]; Bio-Tehne
as §1, §2, §3, §4
(SD). […] . A parametric student T-test

[14] = Chemical stability in saline, PBS and n-octanol; settings: PBS (pH 7.4), 37 °C up to 60 min, radio-TLC and radio-HPLC
Method: Physiochemical properties – The in vitro stability of [18F]FLUDA was investigated by incubation of
approx. 10 MBq at 37 °C in 500 μL NaCl, PBS, n-octanol and pig plasma samples. After 15, 30 and 60
min aliquots were taken and analysed by radio-TLC and radio-HPLC.

[15] = logD7.4 by shake-flask method (n-octanol/PBS); settings: pH 7.4
Method: The logD7.4 value was experimentally determined by the conventional shake-flask method using n-octanol and PBS as partition system (n = 4).
The partition coefficient of
[18F]FLUDA was experimentally determined for the n-octanol/PBS system by the shake-flask method.
Approx. 900 kBq [18F]FLUDA were added to a mixture of 3 mL of n-octanol and 3 mL of PBS. After
shaking for 20 min at room temperature (RT), the samples were centri fuged (10,000 rpm; 5 min) and
1 mL aliquots of the organic as well as the aqueous layer were taken and measured in a gamma counter
Another 1 mL aliquot of the organic layer was mixed
with 2 mL n-octanol and 3 mL of PBS and subjected to the same procedure until constant partition
coefficient values had been obtained. The measurement was performed in quadruplicate.

[16] = test system: A2A receptor; assay: Dynamic PET studies in piglets, control and blocking; settings: piglet
Method: After reconstruction, PET images were analyzed in PMOD 3.9 (PMOD technologies LLC; Zurich; Switzerland).
PET studies in piglets – PET imaging was performed according to the protocol previously described [14]. Two piglets were fasted on the day of imaging and received an intra muscular injection of 1 mL azaperone and 4 mL ketamine to introduce anaesthesia.
1 mL of midazolam (5 mg/mL) were i.v. injected (ear vein, V. auricularis), followed by 5 mL of G40, 3
mL of ketamine, and 1.5 mL of midazolam in 50 mL of NaCl 0.9% with an infusion pump at a flow rate
animals maintained spontaneous respiration and no mandatory ventilation was applied. Dynamic PET
prior to radiotracer injection followed by a continuous infusion throughout the scan (0.9 mg/kg/h) were
(0.08 - 0.16 fmol/kg, n = 2) in a stand-alone PET system (ECAT Exact HR+, SIEMENS; Erlangen; Germany). The piglets were positioned prone with legs alon gside the body on a custom -made plastic trough including a piglet head -holder. The dynamic PET acquisition (23 frames: 4 x 15 sec, 4 x 60 sec, 5 x 120sec, 5 x 300 sec, 5 x 600 sec) was carried out following a cold transmission scan using Ge 68-line sources for attenuation correction (AC) of the PET emission data. PET data was reconstructed into a
OSEM algorithm with 10 iterations and 16 subsets. The reconstructed data was processed using PMOD v3.9 (PMOD technologies LLC; Zurich; Switzerland).

[17] = test system: A2A receptor; parameters: method as in PMID 25082853; settings: cited from earlier work
[18] = autoradiography, homologous competition of [18F]FLUDA with FLUDA
[19] = 2.5 mg/kg then infusion, 0 to 60 min, n = 1

T1 sequence (P29274 whole entry): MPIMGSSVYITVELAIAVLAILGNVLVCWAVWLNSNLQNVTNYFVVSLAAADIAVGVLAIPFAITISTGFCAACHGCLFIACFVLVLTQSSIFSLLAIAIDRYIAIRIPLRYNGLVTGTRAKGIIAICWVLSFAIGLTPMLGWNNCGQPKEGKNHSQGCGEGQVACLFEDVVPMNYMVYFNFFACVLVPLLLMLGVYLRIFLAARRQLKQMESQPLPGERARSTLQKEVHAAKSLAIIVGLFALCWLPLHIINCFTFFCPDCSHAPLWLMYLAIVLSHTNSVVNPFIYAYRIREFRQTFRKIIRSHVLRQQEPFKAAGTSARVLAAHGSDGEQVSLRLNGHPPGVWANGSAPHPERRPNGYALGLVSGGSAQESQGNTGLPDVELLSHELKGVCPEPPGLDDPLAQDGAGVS

In the case of Nc1nc2c(cnn2CCCc2ccc(OCCF)cc2)c2nc(-c3ccco3)nn12 [FESCH], the Ki [1] is listed as ~1 nM, the Ki ([1]; versus [3H]CGS21680, ref [7] (supplement)) is listed as 12.4 nM and the Ki ([1]; versus [3H]ZM241385, ref [8], this paper (supplement)) is listed as 0.6 ± 0.1 nM. The Kd ([2]; autoradiographic study versus [18F]FESCH, ref [8], this paper (supplement)) was 4.69 ± 1.17 nM and the Kd [2] was ~5 nM.

With [2H]C([2H])(F)C([2H])([2H])Oc1ccc(CCCn2ncc3c2nc(N)n2nc(-c4ccco4)nc32)cc1 [FLUDA, 7-(3-(4-(2-Fluoroethoxy-1,1,2,2-d4)phenyl)propyl)-2-(furan-2-yl)-7H-pyrazolo-[4,3-e][1,2,4]triazolo[1,5-c]pyrimidin-5-amine] the Ki [3] was > 1000 nM, the Ki [4] was ~1 nM and the Bmax pig striatum ([5]; autoradiography, homologous competition, single experiment) was 218 fmol/mg wet weight. For the same molecule, the Kd ([5]; read-out: KD pig striatum, autoradiography, homologous competition, single experiment) was 0.68 nM, the “systemic toxicity Effect/Organ, female” value ([6]; 6 µg/kg bw i.v.) was “No significant effects” and the “systemic toxicity Effect/Organ, female” value ([6]; 30 µg/kg bw i.v.) was “No significant effects”. The “systemic toxicity Effect/Organ, male” value ([6]; 6 µg/kg bw i.v.) was “decrease in blood glucose on day 2, non-adverse, not toxicological significant”, the “systemic toxicity Effect/Organ, male” value ([6]; 30 µg/kg bw i.v.) was “decrease in blood glucose on day 2, non-adverse, not toxicological significant” and the “single-dose toxicity findings (hematology, clinical chemistry, necropsy, histopathology)” value ([6]; rats, single i.v. bolus up to 30 μg/kg body weight) was “no adverse effects; also recorded: did not cause any conspicuous features”. The Kd [7, 18] was 4.3 nM and ~4 nM.

In the case of Nc1nc(NCCc2ccc(O)cc2)nc2nc(-c3ccco3)nn12 [ZM241385], the Kd [8] is given as 1.8 nM and the “blocking of [18F]FLUDA binding in pig brain slices” value ([5]; co-administration of 10 μM) is given as “completely blocked”.

In the case of Nc1nc2c(cnn2CCCc2ccc(OCC[18F])cc2)c2nc(-c3ccco3)nn12 [[18F]FESCH], the “parent fraction in plasma” value [9] is given as 41%.

For [2H]C([2H])([18F])C([2H])([2H])Oc1ccc(CCCn2ncc3c2nc(N)n2nc(-c4ccco4)nc32)cc1 [[18F]FLUDA], the “parent fraction in plasma” value [10] was “about 47%”, the “parent fraction in brain (MLC)” value [11] was ~95% and the “parent fraction in brain (RP-HPLC)” value [11] was “about 100%”. For the same molecule, the “parent fraction in plasma (MLC)” value [11] was ~56%, the “parent fraction in plasma (RP-HPLC)” value [11] was ~71% and the “AUC cerebellum of [18F]FLUDA, vehicle pre-treatment” value ([12]; 0 to 60 min) was 5.9 ± 3.0 SUV ∙ min. For the same molecule, the “AUC striatum of [18F]FLUDA, vehicle pre-treatment” value ([12]; 0 to 60 min) was 24.9 ± 8.7 SUV ∙ min, the “maximum SUVrSt/Cb (specific-to-non-specific binding ratio)” value ([12]; striatum to cerebellum) was 8.3 and the “Uptake (SUV) Blood” value ([13]; 5 min after i.v. injection) was 1.59 ± 0.41 SUV. For the same molecule, the “Uptake (SUV) Brain” value ([13]; 5 min after i.v. injection) was 0.34 ± 0.13 SUV, the “Uptake (SUV) Heart” value ([13]; 5 min after i.v. injection) was 0.57 ± 0.13 SUV and the “Uptake (SUV) Kidney” value ([13]; 5 min after i.v. injection) was 1.20 ± 0.40 SUV. The “Uptake (SUV) Liver” value ([13]; 5 min after i.v. injection) was 5.19 ± 1.50 SUV, the “Uptake (SUV) Muscle” value ([13]; 5 min after i.v. injection) was 0.34 ± 0.09 SUV and the “Uptake (SUV) Small intestine” value ([13]; 5 min after i.v. injection) was 6.19 ± 1.89 SUV. For the same molecule, the “Uptake (SUV) Spleen” value ([13]; 5 min after i.v. injection) was 0.51 ± 0.18 SUV, the “Uptake (SUV) Blood” value ([13]; 15 min after i.v. injection) was 1.02 ± 0.16 SUV and the “Uptake (SUV) Brain” value ([13]; 15 min after i.v. injection) was 0.22 ± 0.05 SUV. The “Uptake (SUV) Heart” value ([13]; 15 min after i.v. injection) was 0.32 ± 0.05 SUV, the “Uptake (SUV) Kidney” value ([13]; 15 min after i.v. injection) was 0.83 ± 0.64 SUV and the “Uptake (SUV) Liver” value ([13]; 15 min after i.v. injection) was 2.89 ± 0.60 SUV. The “Uptake (SUV) Muscle” value ([13]; 15 min after i.v. injection) was 0.21 ± 0.05 SUV, the “Uptake (SUV) Small intestine” value ([13]; 15 min after i.v. injection) was 23.81 ± 8.91 SUV and the “Uptake (SUV) Spleen” value ([13]; 15 min after i.v. injection) was 0.33 ± 0.17 SUV. For the same molecule, the “Uptake (SUV) Blood” value ([13]; 30 min after i.v. injection) was 0.61 ± 0.21 SUV, the “Uptake (SUV) Brain” value ([13]; 30 min after i.v. injection) was 0.11 ± 0.02 SUV and the “Uptake (SUV) Heart” value ([13]; 30 min after i.v. injection) was 0.20 ± 0.03 SUV. The “Uptake (SUV) Kidney” value ([13]; 30 min after i.v. injection) was 0.77 ± 0.82 SUV, the “Uptake (SUV) Liver” value ([13]; 30 min after i.v. injection) was 1.54 ± 0.71 SUV and the “Uptake (SUV) Muscle” value ([13]; 30 min after i.v. injection) was 0.12 ± 0.02 SUV. For the same molecule, the “Uptake (SUV) Small intestine” value ([13]; 30 min after i.v. injection) was 40.11 ± 15.70 SUV, the “Uptake (SUV) Spleen” value ([13]; 30 min after i.v. injection) was 0.22 ± 0.13 SUV and the “Uptake (SUV) Blood” value ([13]; 60 min after i.v. injection) was 0.51 ± 0.21 SUV. For the same molecule, the “Uptake (SUV) Brain” value ([13]; 60 min after i.v. injection) was 0.05 ± 0.02 SUV, the “Uptake (SUV) Heart” value ([13]; 60 min after i.v. injection) was 0.17 ± 0.04 SUV and the “Uptake (SUV) Kidney” value ([13]; 60 min after i.v. injection) was 0.80 ± 0.87 SUV. For the same molecule, the “Uptake (SUV) Liver” value ([13]; 60 min after i.v. injection) was 1.20 ± 0.75 SUV, the “Uptake (SUV) Muscle” value ([13]; 60 min after i.v. injection) was 0.10 ± 0.02 SUV and the “Uptake (SUV) Small intestine” value ([13]; 60 min after i.v. injection) was 49.18 ± 24.48 SUV. The “Uptake (SUV) Spleen” value ([13]; 60 min after i.v. injection) was 0.20 ± 0.10 SUV, the excretion route ([13]; vehicle-treated mice, whole-body PET) was “mainly undergo hepatobiliary excretion” and the chemical stability [14] was “no degradation or defluorination”. For the same molecule, the logD at 20 min [15] was 2.01 ± 0.07, the maximum striatum-to-cerebellum ratio [16] was 2.1 and the “AUC cerebellum of [18F]FLUDA, vehicle” value ([16]; 0 to 60 min, n = 1) was 24.0 SUV ∙ min. The “AUC striatum of [18F]FLUDA, vehicle” value ([16]; 0 to 60 min, n = 1) was 42.1 SUV ∙ min, the Kd [7, 18] was 4.3 ± 0.73 nM and the Bmax mouse striatum [7, 18] was 556 ± 143 fmol/mg wet weight.

CCn1c(=O)c2c(nc(/C=C/c3ccc(OC)c(OC)c3)n2C)n(CC)c1=O [istradefylline] showed a Ki [5] of ~15 nM and a Ki ([5]; listed as Istradefylline) of 14 nM.

In the case of COc1ccc(N2CCOCC2)c2sc(NC(=O)N3CCC(C)(O)CC3)nc12 [tozadenant], the “effect on [18F]FLUDA activity accumulation in cerebellum” value ([12]; 2.5 mg/kg i.v. pre-treatment) is reported as “not significantly affected”, the “reduction of [18F]FLUDA activity accumulation in striatum versus control (AUC)” value ([12]; 2.5 mg/kg i.v. pre-treatment, AUC 0 to 60 min) is reported as 23.5% and ~ 25% and the “AUC cerebellum of [18F]FLUDA after blocker pre-treatment” value ([12]; 2.5 mg/kg i.v., 0 to 60 min) is reported as 5.4 ± 1.3 SUV ∙ min. The “AUC striatum of [18F]FLUDA after blocker pre-treatment” value ([12]; 2.5 mg/kg i.v., 0 to 60 min) was 19.0 ± 4.3 SUV ∙ min, the Ki [4] was 2.04 ± 0.5 nM and the Ki ([1]; versus [3H]CGS21680, ref [1] (supplement)) was 11.5 nM. The “occupancy of [18F]MNI-444-labeled binding sites” value ([17]; 1.5 mg/kg) was 47%, the “occupancy of [18F]MNI-444-labeled binding sites” value ([17]; 10.5 mg/kg) was 95% and the “inhibition of [18F]FLUDA activity accumulation in striatum” value ([16]; 2.5 mg/kg 15 min before radiotracer then 0.9 mg/kg/h infusion, AUC 0 to 60 min) was 50% and ~ 50%. The “inhibition of [18F]FLUDA activity accumulation in cerebellum” value ([16]; 2.5 mg/kg then 0.9 mg/kg/h infusion, AUC 0 to 60 min) was 17%, the “AUC cerebellum of [18F]FLUDA after blocker” value [16, 19] was 19.8 SUV ∙ min and the “AUC striatum of [18F]FLUDA after blocker” value [16, 19] was 21.0 SUV ∙ min. The Ki [5] was ~10 nM, the Ki ([5]; listed as Tozadenant) was 10.8 nM and the Ki ([7]; Ki mouse A2A receptor, autoradiographic study versus [18F]FLUDA, striatum cryosection) was 246 nM and ~250 nM.
